Experimental data published in patent US20040122083A1, “Antitubulin assembly and cell growth inhibitor denominated "dioxostatin"” (priority 2003, published 2004).
In brackets after ≈: the same amount, converted by molar mass. Like-named read-outs stand apart in the source and are kept apart here. Blank lines part the entries; values can stand above or below the compound they belong to.

What was measured:
Neisseria gonorrhoeae = assay: Disk susceptibility testing; assay type: cell-based
Excerpt: (§1) Antimicrobial susceptibility testing. […] Eur. J. Med. Chem. 1998, 33, 71-77).

Streptococcus pneumoniae = assay: Disk susceptibility testing; assay type: cell-based
Excerpt: as §1

Candida albicans = tested on: Candida albicans
Excerpt: as §1

Cryptococcus neoformans = tested on: Cryptococcus neoformans
Excerpt: as §1

[1] = tested on: Stenotrophomonas maltophilia
Excerpt: as §1

cancer cell growth = conditions: cited from earlier work; for activity as cancer cell growth inhibitors: initial finding
tubulin [2] = target: T1, tubulin (Bos taurus, UniProt P81947+Q6B856); assay: Inhibition of [3H]colchicine binding to tubulin
Protocol: (§2) Tubulin assays. The tubulin polymerizion and colchicine binding experiments were performed as described previously (See: Verdier-Pinard, P.; Lai, J -Y.; Yoo, H -D.; Yu, J.; Marquez, B.; Nagle, D. G.; Nambu, M.; White, J. D.; Falck, J. R; Gerwick, W. H.; Day, B. W.; Hamel, E. Mol. Pharmacol. 1998, 53, 62-76). However, in the polymerization assays Beckman DU7400/7500 spectrophotometers equipped with “high performance” temperature controllers were used. […] Temperature changes were, however, more rapid, with the jump from the lower temperature to 30EC taking about 20 sec and the reverse jump about 100 sec.

Staphylococcus aureus = assay: Disk susceptibility testing; assay type: cell-based
Excerpt: as §1

colchicine binding = conditions: at equal concentrations; cited from earlier work
solid tumors = conditions: cited from earlier work
[3] = tested on: the ten bacteria and fungi tested; assay: Disk susceptibility testing, whole panel; assay type: cell-based; conditions: at 100 μg/disk
Excerpt: as §1

BXPC-3 = assay: Human cancer cell line growth inhibition, Pancreas-a BXPC-3; assay type: cell-based; conditions: for GI50: Homo sapiens
SK-N-SH = assay: Human cancer cell line growth inhibition, Neuroblast SK-N-SH; assay type: cell-based; conditions: for GI50: Homo sapiens
SW1736 = assay: Human cancer cell line growth inhibition, Thyroid ca SW1736; assay type: cell-based; conditions: for GI50: Homo sapiens, SW-1736
NCI-H460 = assay: Human cancer cell line growth inhibition, Lung-NSC NCI-H460; assay type: cell-based; conditions: for GI50: Homo sapiens
FADU = assay: Human cancer cell line growth inhibition, Pharynx-sq FADU; assay type: cell-based; conditions: for GI50: Homo sapiens, FaDu
DU-145 = assay: Human cancer cell line growth inhibition, Prostate DU-145; assay type: cell-based; conditions: for GI50: Homo sapiens
OVCAR-3 = assay: Human cancer cell line growth inhibition, Ovarian OVCAR-3; assay type: cell-based; conditions: for GI50: Homo sapiens
SF-295 = assay: Human cancer cell line growth inhibition, CNS SF-295; assay type: cell-based; conditions: for GI50: Homo sapiens
A498 = assay: Human cancer cell line growth inhibition, Renal A498; assay type: cell-based; conditions: for GI50: Homo sapiens
KM20L2 = assay: Human cancer cell line growth inhibition, Colon KM20L2; assay type: cell-based; conditions: for GI50: Homo sapiens, KM-20L2
tubulin [4] = target: T1, tubulin; assay: Inhibition of tubulin polymerization (assembly); assay type: biochemical
Protocol: as §2

Aqueous solubility = assay type: physicochemical
[5] = read-out: % Inhibition Colchicine binding ± SD
[6] = Table II, tubulin concentration 10 μM, read-out: Inhibition of tubulin Polymerization IC50 ± SD
[7] = Table IV and text, read-out: Inhibition of Tubulin Assembly IC50 ± SD

T1 sequence (Q6B856 whole entry): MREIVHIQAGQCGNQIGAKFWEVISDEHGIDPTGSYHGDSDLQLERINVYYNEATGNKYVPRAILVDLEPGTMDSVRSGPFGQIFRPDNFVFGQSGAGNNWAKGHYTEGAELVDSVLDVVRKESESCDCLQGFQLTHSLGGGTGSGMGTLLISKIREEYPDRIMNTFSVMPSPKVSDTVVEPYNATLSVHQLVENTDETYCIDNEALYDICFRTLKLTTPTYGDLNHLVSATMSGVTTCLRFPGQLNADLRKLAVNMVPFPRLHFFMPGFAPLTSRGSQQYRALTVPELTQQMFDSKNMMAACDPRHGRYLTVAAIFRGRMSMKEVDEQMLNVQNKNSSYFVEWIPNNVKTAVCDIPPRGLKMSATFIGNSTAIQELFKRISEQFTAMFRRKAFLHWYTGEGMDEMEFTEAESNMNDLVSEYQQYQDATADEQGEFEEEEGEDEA
T1 sequence (P81947 whole entry): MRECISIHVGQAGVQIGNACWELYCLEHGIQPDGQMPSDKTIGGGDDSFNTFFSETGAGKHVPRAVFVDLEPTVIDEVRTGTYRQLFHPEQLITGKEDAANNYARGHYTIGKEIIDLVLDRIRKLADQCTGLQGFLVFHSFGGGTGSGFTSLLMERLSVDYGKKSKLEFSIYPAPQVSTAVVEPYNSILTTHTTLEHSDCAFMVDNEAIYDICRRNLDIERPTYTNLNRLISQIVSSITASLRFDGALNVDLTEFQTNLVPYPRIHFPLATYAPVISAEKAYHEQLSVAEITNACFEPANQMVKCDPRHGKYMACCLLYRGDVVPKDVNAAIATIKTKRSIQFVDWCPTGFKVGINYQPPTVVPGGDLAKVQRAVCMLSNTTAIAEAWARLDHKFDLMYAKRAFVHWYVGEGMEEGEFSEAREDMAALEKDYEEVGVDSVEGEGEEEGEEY

SMILES: COc1ccc(/C=C/c2cc(OC)c(OC)c(OC)c2)c(O)c1O [Compound 2b, E-combretastatin A-1]
Minimum inhibitory Concentration (Neisseria gonorrhoeae): 6.25-12.5 μg/disk | Minimum inhibitory Concentration (Streptococcus pneumoniae): 50-100 μg/disk | Minimum inhibitory Concentration (Candida albicans): 50-100 μg/disk | Minimum inhibitory Concentration (Cryptococcus neoformans): 50-100 μg/disk | Minimum inhibitory Concentration [1]: 50-100 μg/disk | activity as cancer cell growth inhibitors (cancer cell growth): moderately active

SMILES: COc1ccc(/C=C\c2cc(OC)c(OC)c(OC)c2)c(O)c1O [Compound 1a, combretastatin A-1, reference compound]
inhibition at 1 µM (tubulin [2]; [5]): 89 ± 3% | inhibition at 5 µM (tubulin [2]; [5]): 99.6% | Minimum inhibitory Concentration (Neisseria gonorrhoeae): 25-50 μg/disk | Minimum inhibitory Concentration (Staphylococcus aureus): 50-100 μg/disk | inhibition of colchicine binding (colchicine binding): ~99% | degree of reduction, vascular shutdown within solid tumors (solid tumors): 50%

SMILES: COc1ccc(/C=C/c2cc(OC)c(OC)c(OC)c2)cc1O [Compound 2d]
Microbe(s) inhibited, whole panel [3]: * (at 100 μg/disk, no inhibition of the ten bacteria and fungi tested) | activity as cancer cell growth inhibitor (cancer cell growth; freshly prepared solutions in dimethyl sulfoxide): inactive | activity as cancer cell growth inhibitors (cancer cell growth): moderately active

SMILES: COc1ccc([C@H](O)[C@@H](O)c2cc(OC)c(OC)c(OC)c2)cc1O [(S,S)-4a]
Pancreas-a BXPC-3 GI50 (BXPC-3): 3.9 µg/mL | Neuroblast SK-N-SH GI50 (SK-N-SH): 0.28 µg/mL | Thyroid ca SW1736 GI50 (SW1736): 1.8 µg/mL | Lung-NSC NCI-H460 GI50 (NCI-H460): 2.5 µg/mL | Pharynx-sq FADU GI50 (FADU): 0.60 µg/mL | Prostate DU-145 GI50 (DU-145): 2.1 µg/mL | Ovarian OVCAR-3 GI50 (OVCAR-3): 0.38 µg/mL | CNS SF-295 GI50 (SF-295): 0.52 µg/mL | Renal A498 GI50 (A498): 0.91 µg/mL | Colon KM20L2 GI50 (KM20L2): 0.52 µg/mL | IC50 (tubulin [4]; [6]): 14 ± 2 µM | Minimum inhibitory Concentration (Streptococcus pneumoniae): 25-50 μg/disk

SMILES: COc1ccc([C@@H](O)[C@H](O)c2cc(OC)c(OC)c(OC)c2)c(O)c1O [(R,R)-3b, (1R,2R)-1,2-Dihydroxy-1-(2′,3′-dihydroxy-4′-methoxyphenyl)-2-(3″,4″,5″-trimethoxyphenyl)-ethane]
GI50 (BXPC-3): > 10 µg/mL | GI50 (SK-N-SH): 3.1 µg/mL (≈ 8.46 µM) | GI50 (SW1736): > 10 µg/mL | GI50 (NCI-H460): 7.9 µg/mL (≈ 21.6 µM) | GI50 (FADU): 4.9 µg/mL (≈ 13.4 µM) | GI50 (DU-145): > 10 µg/mL | GI50 (OVCAR-3): 7.2 µg/mL (≈ 19.7 µM) | GI50 (SF-295): 2.6 µg/mL (≈ 7.1 µM) | GI50 (A498): > 10 µg/mL | GI50 (KM20L2): 7 µg/mL (≈ 19.1 µM) | Microbe(s) inhibited, whole panel [3]: * (at 100 μg/disk, no inhibition of the ten bacteria and fungi tested) | melting point: 64 to 66 °C

SMILES: COc1cc([C@@H]2OCO[C@H]2c2ccc(OC)c(OP(=O)([O-])[O-])c2OP(=O)([O-])[O-])cc(OC)c1OC.[Na+].[Na+].[Na+].[Na+] [(S,S)-21, Tetrasodium-(4S,5S)-4-(2′,3′-O-diphosphonate-4′-methoxyphenyl)-5-(3″,4″,5″-trimethoxyphenyl)-1,3-dioxolane]
GI50 (BXPC-3): > 10 µg/mL | GI50 (NCI-H460): 3.4 µg/mL | GI50 (DU-145): 2.9 µg/mL | GI50 (OVCAR-3): 2.6 µg/mL | GI50 (SF-295): 3.2 µg/mL | GI50 (KM20L2): > 10 µg/mL | solubility (Aqueous solubility): > 35 mg/mL

SMILES: COc1ccc([C@@H](O)[C@H](O)c2cc(OC)c(OC)c(OC)c2)cc1O [(R,R)-3a]
Pancreas-a BXPC-3 GI50 (BXPC-3): >10 µg/mL | Neuroblast SK-N-SH GI50 (SK-N-SH): 1.5 µg/mL | Thyroid ca SW1736 GI50 (SW1736): 6.1 µg/mL | Lung-NSC NCI-H460 GI50 (NCI-H460): 4.4 µg/mL | Pharynx-sq FADU GI50 (FADU): 2.1 µg/mL | Prostate DU-145 GI50 (DU-145): 3.5 µg/mL | Ovarian OVCAR-3 GI50 (OVCAR-3): 4.5 µg/mL | CNS SF-295 GI50 (SF-295): 5.7 µg/mL | Renal A498 GI50 (A498): >10 µg/mL | Colon KM20L2 GI50 (KM20L2): 8.2 µg/mL | IC50 (tubulin [4]; [6]): > 40 µM | Minimum inhibitory Concentration (Streptococcus pneumoniae): 50-100 μg/disk

SMILES: COc1ccc([C@H](O)[C@@H](O)c2cc(OC)c(OC)c(OC)c2)c(O)c1O [(S,S)-4b]
GI50 (BXPC-3): > 10 µg/mL | GI50 (SK-N-SH): 3.8 µg/mL (≈ 10.4 µM) | GI50 (SW1736): > 10 µg/mL | GI50 (NCI-H460): > 10 µg/mL | GI50 (FADU): > 10 µg/mL | GI50 (DU-145): > 10 µg/mL | GI50 (OVCAR-3): > 10 µg/mL | GI50 (SF-295): 2.9 µg/mL (≈ 7.92 µM) | GI50 (A498): > 10 µg/mL | GI50 (KM20L2): > 10 µg/mL | Minimum inhibitory Concentration (Neisseria gonorrhoeae): 25-50 μg/disk | melting point: 64 to 66 °C

SMILES: COc1ccc(/C=C\c2cc(OC)c(OC)c(OC)c2)cc1O [Compound 1b, combretastatin A-4]
degree of reduction, vascular shutdown within solid tumors (solid tumors): 70%

SMILES: COc1ccc(/C=C\c2cc(OC)c(OC)c(OC)c2)cc1OP(=O)([O-])[O-].[Na+].[Na+] [Compound 1d]
vascular shutdown within metastatic tumors (solid tumors; doses one-tenth of the maximum tolerated dose): complete vascular shutdown

Pancreas-a BXPC-3 GI50 (BXPC-3): >10 µg/mL | Lung-NSC NCI-H460 GI50 (NCI-H460): >10 µg/mL | Prostate DU-145 GI50 (DU-145): >10 µg/mL | Ovarian OVCAR-3 GI50 (OVCAR-3): >10 µg/mL | CNS SF-295 GI50 (SF-295): 5.0 µg/mL | Colon KM20L2 GI50 (KM20L2): >10 µg/mL | IC50 (tubulin [4]; [7]): 5.7 ± 0.8 µM | % Inhibition Colchicine binding ± SD (tubulin [2]; 5 μM Inhibitor): 14 ± 5% | % Inhibition Colchicine binding ± SD (tubulin [2]; 50 μM Inhibitor): 57 ± 0.8%
SMILES: COc1ccc([C@H]2OCO[C@@H]2c2cc(OC)c(OC)c(OC)c2)c(O)c1O [(R,R)-10a, (4R,5R)-4-(2′,3′-Dihydroxy-4′-methoxyphenyl)-5-(3″,4″,5″-trimethoxyphenyl)-1,3-dioxolane]

Pancreas-a BXPC-3 GI50 (BXPC-3): 5.4 µg/mL | Lung-NSC NCI-H460 GI50 (NCI-H460): >10 µg/mL | Prostate DU-145 GI50 (DU-145): 3.0 µg/mL | Ovarian OVCAR-3 GI50 (OVCAR-3): 4.3 µg/mL | CNS SF-295 GI50 (SF-295): 2.9 µg/mL | Colon KM20L2 GI50 (KM20L2): 5.0 µg/mL | IC50 (tubulin [4]; [7]): 0.59 µM | % Inhibition Colchicine binding ± SD (tubulin [2]; 1 μM Inhibitor): 67 ± 6% | % Inhibition Colchicine binding ± SD (tubulin [2]; 5 μM Inhibitor): 91 ± 1%
SMILES: COc1ccc([C@@H]2OCO[C@H]2c2cc(OC)c(OC)c(OC)c2)c(O)c1O [(S,S)-9a, (4S,5S)-4-(2′,3′-dihydroxy-4′-methoxyphenyl)-5-(3″,4″,5″-trimethoxyphenyl)-1,3-dioxolane]
